Laboratory results taken from patent US20250043299A1, “POINT MUTATIONS THAT BOOST AROMATIC AMINO ACID PRODUCTION AND CO2 ASSIMILATION IN PLANTS” (Wisconsin Alumni Research Foundation, priority 2021, published 2025).
Read-outs that look alike come from different tables or passages of the source.

Key:
[1] = target: T1, Arabidopsis thaliana DHS1 (SEQ ID NO:1) variant DHS1^B4 (sotaB4), G244R (Arabidopsis thaliana, UniProt P29976, G244R); experiment: DHS enzyme assay with effector, DHS1 sotaB4; assay type: biochemical
T1 construct: without the predicted plastid transit peptide (amino acid residues; 49-525, 34-507, and 52-527, respectively); made in house; host or cells: E. coli
Method: (§1) To generate recombinant DHS proteins the pET28a vectors carrying the A. thaliana DHS1 (AtDHS1), AtDHS2, or AtDHS3 WT sequence without the predicted plastid transit peptide (amino acid residues; 49-525, 34-507, and 52-527, respectively) were expressed in E. coli Rosetta-2 cells and purified using Ni-affinity chromatography, exactly as was conducted previously (9). To generate DHS proteins with individual sota mutations via site-directed mutagenesis, these pET28a plasmid templates were diluted by 500-fold, mixed with 0.04 U/μL Phusion DNA polymerase (Thermo Scientific), 0.2 mM deoxynucleoside triphosphates (dNTPs), 1× Phusion reaction buffer (Thermo Scientific), and 0.5 μM forward and reverse mutagenesis primers (Table 10). The PCR reaction was run using the following protocol: 98° C. for 30 s followed by 20 cycles of 10 s at 98° C., 20 s at 70° C., 4.5 min at 72° C. with a final extension at 72° C. for 10 min. The PCR products were purified using a QIAquick Gel Extraction Kit (QIAGEN), treated with FastDigest DpnI (Thermo Scientific) to digest methylated plasmid template DNA for 20 min at 37° C., and transformed into E. coli cells. The mutagenized pET28a plasmids were sequenced to confirm that no errors were introduced during the mutagenesis process.
(§2) The DHS enzyme assays were conducted using the colorimetric method that we recently described (9). Briefly, the enzyme solution (7.7 μl) containing 50 mM Hepes (pH 7.4) was preincubated with an effector molecule(s) at room temperature for 15 min. For assays using recombinant protein and enzyme fractions isolated from plant leaves, 0.01 to 0.1 μg and approximately 50 μg of proteins were used, respectively. After adding 0.5 μl of 0.1 M dithiothreitol, the samples were further incubated at room temperature for 15 min. During these incubations, the substrate solution containing 50 mM Hepes (pH 7.4), 2 mM MnCl2, 4 mM E4P, and 4 mM PEP at final concentration was preheated at 37° C. The enzyme reaction was started by adding 6.8 μl of the substrate solution, then incubated at 37° C. for 30 min, and terminated by adding 30 μl of 0.6 M trichloroacetic acid. After a brief centrifugation, 5 μl of 200 mM NaIO4 (sodium meta-periodate) in 9 N H3PO4 was added to oxidize the enzymatic product and to incubate at 25° C. for 20 min. To stop the oxidation reaction, 20 μl of 0.75 M NaAsO2 (sodium arsenite), which was dissolved in 0.5 M Na2SO4 and 0.05 M H2SO4, was added and immediately mixed. After 5 min of incubation at room temperature, one-third of the sample solution was transferred to a new tube to be mixed with 50 μl of 40 mM thiobarbituric acid and incubated at 99° C. for 15 min in a thermal cycler. The mixture was added to 600 μl of cyclohexanone in eight-strip solvent-resistant plastic tubes, mixed vigorously, and centrifuged at 4500 g for 3 min to separate water- and cyclohexanone-based layers for the extraction off the developed pink chromophore. The absorbance of the pink supernatant was read at 549 nm with the microplate reader (Infinite 200 PRO, TECAN) to calculate DAHP production with the molar extinction coefficient at 549 nm (ε=549 nm) of 4.5×10^4 M^−1 cm^−1. Reaction mixtures with boiled enzymes were run in parallel and used as negative controls to estimate the background signal.

[2] = test system: Arabidopsis thaliana DHS^WT isoforms (DHS1, DHS2, DHS3), SEQ ID NO:1-3; settings: reference 9; cited from earlier work
DHS1^B4 = target: T2, DHS1^B4 (Arabidopsis thaliana, UniProt P29976, G244R); experiment: DHS enzyme assay, recombinant DHS1^B4; assay type: biochemical
T2 construct: without the predicted plastid transit peptide (amino acid residues; 49-525, 34-507, and 52-527, respectively); made in house; host or cells: E. coli
Method: as §1, §2

[3] = target: T3, Arabidopsis thaliana DHS1 (AtDHS1), wild type (DHS1^WT), SEQ ID NO:1 (Arabidopsis thaliana, UniProt P29976); settings: values for AAAs, chorismate, caffeate from Yokoyama et al., Plant Cell, 2021; cited from earlier work
T3 construct: without the predicted plastid transit peptide (amino acid residues; 49-525, 34-507, and 52-527, respectively); made in house; host or cells: E. coli Rosetta-2

[4] = target: T4, Arabidopsis thaliana DHS2 (SEQ ID NO:2) variant DHS2^A4 (sotaA4), G222S (Arabidopsis thaliana, UniProt Q00218, G222S); experiment: biochemical; assay type: biochemical
T4 construct: without the predicted plastid transit peptide (amino acid residues; 49-525, 34-507, and 52-527, respectively); made in house; host or cells: E. coli
Method: as §1, §2

[5] = target: T5, Arabidopsis thaliana DHS2 (AtDHS2), wild type (DHS2^WT), SEQ ID NO:2 (Arabidopsis thaliana, UniProt Q00218); settings: DHS2^WT; values for AAAs, chorismate, caffeate from Yokoyama et al., Plant Cell, 2021; cited from earlier work
T5 construct: without the predicted plastid transit peptide (amino acid residues; 49-525, 34-507, and 52-527, respectively); made in house; host or cells: E. coli Rosetta-2

DHS2^A4 = target: T6, DHS2^A4 (Arabidopsis thaliana, UniProt Q00218, G222S); assay type: biochemical
T6 construct: without the predicted plastid transit peptide (amino acid residues; 49-525, 34-507, and 52-527, respectively); made in house; host or cells: E. coli
Method: as §1, §2

plant DHSs = settings: prior reports (9); cited from earlier work
DHS1^WT = target: T7, DHS1^WT (Arabidopsis thaliana, UniProt P29976); experiment: DHS enzyme assay (colorimetric), recombinant DHS1^WT; assay type: biochemical
T7 construct: without the predicted plastid transit peptide (amino acid residues; 49-525, 34-507, and 52-527, respectively); made in house; host or cells: E. coli Rosetta-2
Method: as §1, §2

[6] = test system: Arabidopsis Col-0 WT plants; experiment: Plant growth on media containing ILA or IPA (feeding); assay type: in vivo, Arabidopsis thaliana; settings: IPA <10 μM; ILA 0-1000 μM in media
Description: (A) A structural model of A. thaliana DHS2 (AtDHS2, purple) generated from the P. aeruginosa DHS (PaDHS, white) with Trp (magenta) bound. Residues corresponding to the sota mutations mapped onto the AtDHS2 model are highlighted in yellow. (B) Selected regions of the amino acid sequence alignment of PaDHS and AtDHS enzymes, with the positions of the sota mutations indicated by blue, red, green arrows for AtDHS1, AtDHS2, and AtDHS3, respectively. […] Data are means±SEM (n=3). (D) Screening of AAAs and AAA-derived metabolites as potential inhibitors of DHS1^WT and DHS2^WT. *P≤0.05, **P≤0.01, ***P≤0.001, and ****P≤0.0001 denote significant differences by one-way ANOVA with Dunnett's test against the corresponding “No effector” samples. Data are means±SEM (n=3). The dotted horizontal lines separate four sets of independent experiments. […] Data are means±SEM (n=3). (G) Plant picture (left) and fresh weight measurement (right) of 3-week-old Col-0, sotaB4, and sotaA4 mutants (Col-0 background) on the media containing ILA at 0, 250, 500, or 1000 μM. *P≤0.05 and **P≤0.01 denote significant differences by one-way ANOVA with Dunnett's test against the corresponding Col-0 samples (n=12 to 16 independent plant samples). […]

DHS2^WT = target: T8, DHS2^WT (Arabidopsis thaliana, UniProt Q00218); experiment: DHS enzyme assay, recombinant DHS2^WT; assay type: biochemical; settings: FIG. 2D
T8 construct: without the predicted plastid transit peptide (amino acid residues; 49-525, 34-507, and 52-527, respectively); made in house; host or cells: E. coli Rosetta-2
Method: as §1, §2

[7] = test system: Nicotiana benthamiana leaves; experiment: Transient expression of Arabidopsis DHS1 WT and B4 in Nicotiana benthamiana, AAA levels by LC-MS; assay type: in vivo; settings: two days after inoculation
Method: Vectors for plant expression were made as previously described using MoClo modular cloning technology. For transient expression in Nicotiana benthamiana, gene expression of the protein coding sequence (CDS) of DHS1 WT and B4 were driven by a 1987-bp sequence obtained from the upstream region of the ubiquitin 10 gene (At4g05320) from Arabidopsis. In addition, a synthetic hemagglutinin (HA) tag comprising 6 repeats of the sequence […] (SEQ ID NO:75) was added to the C-terminus of the protein for quantification of protein expression using an anti-HA antibody. Vectors containing the promoter, CDS, epitope HA-tag, and a terminator were transformed into Agrobacterium tumefaciens via electroporation.
Positive transformants were used to perform transient expression in Nicotiana benthamiana. Single colony bacteria were grown in LB media supplemented with kanamycin (100 mg/L) and gentamycin (100 mg/L) at 28° C. with constant agitation at 200 rpm. […] After complete resuspension, bacteria concentration was evaluated by spectrometry using optical density (OD) at 600 nm. […]
Each inoculated leaf was separated into 4 quadrants, and each quadrant received a different bacteria solution containing a different vector. […] Samples for metabolite analysis were collected two days after inoculation and processed as previously described for quantification of aromatic amino acids.

T1 sequence (P29976 49-525 G244R): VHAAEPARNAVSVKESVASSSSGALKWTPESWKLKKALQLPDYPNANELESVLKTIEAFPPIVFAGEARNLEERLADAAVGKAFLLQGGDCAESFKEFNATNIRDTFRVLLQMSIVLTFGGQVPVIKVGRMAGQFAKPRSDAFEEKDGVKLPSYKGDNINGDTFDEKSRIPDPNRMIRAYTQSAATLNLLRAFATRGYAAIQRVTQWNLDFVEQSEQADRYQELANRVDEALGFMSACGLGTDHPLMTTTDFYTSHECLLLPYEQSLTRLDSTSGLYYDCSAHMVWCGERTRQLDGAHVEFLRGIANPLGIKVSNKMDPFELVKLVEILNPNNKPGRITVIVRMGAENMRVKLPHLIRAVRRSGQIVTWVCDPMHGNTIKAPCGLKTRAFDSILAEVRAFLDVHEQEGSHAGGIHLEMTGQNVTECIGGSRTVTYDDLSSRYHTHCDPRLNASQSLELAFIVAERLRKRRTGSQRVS
T6 sequence (Q00218 34-507 G222S): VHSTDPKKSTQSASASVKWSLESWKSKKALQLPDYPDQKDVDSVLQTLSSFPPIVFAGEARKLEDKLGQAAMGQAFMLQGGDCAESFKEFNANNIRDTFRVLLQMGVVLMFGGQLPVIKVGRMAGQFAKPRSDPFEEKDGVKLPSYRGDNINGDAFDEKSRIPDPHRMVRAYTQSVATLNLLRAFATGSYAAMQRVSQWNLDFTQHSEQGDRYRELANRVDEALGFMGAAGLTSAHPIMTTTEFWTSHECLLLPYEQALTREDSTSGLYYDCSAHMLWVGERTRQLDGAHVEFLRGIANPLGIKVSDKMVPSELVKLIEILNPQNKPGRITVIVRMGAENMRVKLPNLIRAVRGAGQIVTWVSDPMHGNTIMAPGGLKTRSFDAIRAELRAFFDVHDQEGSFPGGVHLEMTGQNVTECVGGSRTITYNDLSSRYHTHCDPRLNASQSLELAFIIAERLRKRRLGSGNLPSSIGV
T4 sequence (Q00218 34-507 G222S): as above
T2 sequence (P29976 49-525 G244R): as the sequence (P29976 49-525 G244R) above
T7 sequence (P29976 49-525): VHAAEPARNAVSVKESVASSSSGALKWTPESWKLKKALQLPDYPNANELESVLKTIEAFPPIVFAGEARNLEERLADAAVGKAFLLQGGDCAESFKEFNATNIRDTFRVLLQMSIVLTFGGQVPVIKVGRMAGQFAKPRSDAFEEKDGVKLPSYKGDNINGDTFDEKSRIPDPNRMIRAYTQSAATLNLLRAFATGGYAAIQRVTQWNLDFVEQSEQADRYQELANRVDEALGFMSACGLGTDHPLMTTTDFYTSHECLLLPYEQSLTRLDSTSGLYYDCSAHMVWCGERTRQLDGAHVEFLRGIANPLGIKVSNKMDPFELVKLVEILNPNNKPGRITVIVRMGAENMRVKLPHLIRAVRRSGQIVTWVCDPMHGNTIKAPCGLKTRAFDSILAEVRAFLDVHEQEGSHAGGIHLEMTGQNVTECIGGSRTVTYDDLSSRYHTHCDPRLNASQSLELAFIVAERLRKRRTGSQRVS
T5 sequence (Q00218 34-507): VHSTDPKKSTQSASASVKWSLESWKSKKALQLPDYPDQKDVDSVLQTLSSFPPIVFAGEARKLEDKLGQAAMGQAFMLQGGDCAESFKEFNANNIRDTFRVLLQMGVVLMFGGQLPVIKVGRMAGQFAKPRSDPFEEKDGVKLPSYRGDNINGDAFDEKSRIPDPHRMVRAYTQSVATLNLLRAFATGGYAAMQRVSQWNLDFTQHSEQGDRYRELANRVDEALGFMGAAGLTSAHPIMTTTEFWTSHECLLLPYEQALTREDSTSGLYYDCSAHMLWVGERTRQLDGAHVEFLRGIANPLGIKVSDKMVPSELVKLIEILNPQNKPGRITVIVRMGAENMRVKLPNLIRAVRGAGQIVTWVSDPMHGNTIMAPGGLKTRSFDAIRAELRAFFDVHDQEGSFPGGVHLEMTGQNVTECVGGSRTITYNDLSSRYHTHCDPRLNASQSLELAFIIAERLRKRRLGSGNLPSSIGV
T8 sequence (Q00218 34-507): as above
T3 sequence (P29976 49-525): as the sequence (P29976 49-525) above

In the case of `C=C(O[C@@H]1C=C(C(=O)O)C=C[C@H]1O)C(=O)O` [Chorismate], the IC50 [1] is given as 25.3 µM, the “inhibition of DHS1^B4” value ([1]; FIG. 19) is given as “still strongly inhibited” and the “inhibition of all Arabidopsis DHS isoforms” value [2] is given as “strongly inhibit all Arabidopsis DHS isoforms”. For the same molecule, the “inhibition of DHS1^B4 activity” value (DHS1^B4) was “still strongly inhibited”, the IC50 (DHS1^B4; recombinant enzyme, read-out: IC50 of effector molecule on DHS1^B4) was 25.3 µM and the IC50 [3] was 14.6 µM. The IC50 [4] was 101 µM, the “inhibition of DHS2^A4” value ([4]; up to 1 mM Tyr, Trp (FIG. 2C), shikimate, arogenate, prephenate at 1 mM (FIG. 21A)) was “still inhibited” and the IC50 [5] was 81 µM. The “inhibition of DHS2^A4 activity” value (DHS2^A4; effector up to 1 mM) was “still inhibited” and the IC50 (DHS2^A4; recombinant enzyme, read-out: IC50 of effector molecule on DHS2^A4) was 102 µM.

In the case of `O=C[C@H](O)[C@H](O)COP(=O)(O)O` [E4P, erythrose-4-phosphate], the “Km for E4P” value (plant DHSs) is listed as “high”.

For `O=C(O)C(O)Cc1c[nH]c2ccccc12` (stereo not drawn) [ILA, Indole-3-lactate], the IC50 ([1]; DHS1^B4, 4 mM E4P, 4 mM PEP, pH 7.4, 37° C.) was 2880 µM, the “effect on DHS1 activity (effector screening)” value (DHS1^WT; FIG. 2D) was “reduced the activity” and the IC50 (DHS1^WT; recombinant enzyme, read-out: IC50 of effector molecule on DHS1^WT) was 210 µM. The “effect of feeding on plant growth” value [6] was “growth inhibition” and the “effect on DHS2 activity (effector screening)” value (DHS2^WT) was “reduced the activity”.

For “Arabidopsis DHS1 sotaB4 mutant: Arabidopsis DHS1 enzyme with the sotaB4 mutation (G244R)”, the “production of tyrosine and phenylalanine in the tobacco plant” value [7] was “significantly elevated production”.
